According to patent publication US10045966B2, “Compositions and methods for treating microbial infections” (Vanderbilt Univeristy, priority 2012, dated 2018):
“Also recorded” adds a separate entry of the source.

How the values were obtained:
S. aureus [1] = assay type: cell-based; settings: for Growth of ΔmenB (cannot respire, solely ferments): S. aureus ΔmenB, aerobic and anaerobic
S. aureus [2] = experiment: Pre-adaptation for heme toxicity, growth curve analysis; assay type: cell-based; settings: overnight pre-treatment, subculture into 20 μM heme
Protocol: FIGS. 9A-9C describe a high throughput screen that identifies small molecule activators of HssRS. (A) A secondary screen consisting of a XylE reporter assay verified the activity of the top 110 hits from the primary screen, including '882. Triplicate cultures of S. aureus WT and ΔhssR transformed with the hrtAB promoter-xylE fusion-containing plasmid (phrt.xylE) were grown in the presence of the indicated additive and XylE activity was measured. (B) The structure of lead compound VU0038882 (′882). (C) '882 was confirmed as a hit in a tertiary screen that measured the ability of the compound to pre-adapt S. aureus for growth in 20 μM heme. Triplicate cultures of WT S. aureus were grown overnight in medium containing the indicated additive and sub-cultured into medium containing 20 μM heme. Growth was monitored by measuring the optical density at 600 nm (OD600) over time. […]
The present inventors designed and conducted a screening assay to identify activators of HssRS. With reference to FIG. 2A, a reporter plasmid containing the luxABCDE operon from Photorhabdus luminescens driven by the hrtAB promoter (phrt.lux) was used to screen 160,000 compounds from the VICB small molecule library with luminescence. […] The inhibition of growth due to heme toxicity is determined by measuring the optical density of bacterial cultures at 600 nm. […]

S. aureus [3] = experiment: Systemic staphylococcal infection in mice, liver CFUs and abscesses; assay type: in vivo; settings: mice infected intravenously, intraperitoneal treatment, 96 h
Protocol: FIGS. 16A-16D show embodiments of the preset invention reduce S. aureus pathogenesis in vivo. Mice infected retroorbitally with S. aureus were treated intraperitoneally with vehicle (10% Tween 80) or '373. After 96 h mice were sacrificed and (A) CFUs and (B) surface abscesses were enumerated from the livers. Each marker represents an individual mouse. Data were collected from three independent experiments resulting in n=13 for vehicle and n=12 for '373-treated mice once the highest and lowest values were removed from each group. The horizontal line indicates the mean and the error bars represent the standard error of the mean. Statistical significance was determined by a two-tailed Student's t-test. Livers from mice treated with the indicated dose of '373 were harvested 24 h post-infection (1 h after the 2nd treatment), sectioned, and mounted on MALDI target plates (C). (D) Tissue sections were imaged by MALDI-MS/MS for accumulation of a fragment of '373 by MALDI-MS/MS (m/z 255.2→134). Spectra were acquired at 10 microscans per step. 5 laser shots were acquired per pixel and pixels were obtained every 100 μm.

HssRS = experiment: XylE reporter assay (hrtAB promoter-xylE fusion) for HssRS activation; assay type: cell-based, S. aureus; settings: for HssRS activation (XylE reporter activity): S. aureus carrying phrt.xylE; for HssRS activation in heme auxotroph ΔhemB: S. aureus hemB::ermC (ΔhemB) carrying phrt.xylE
Protocol: FIGS. 9A-9C describe a high throughput screen that identifies small molecule activators of HssRS. (A) A secondary screen consisting of a XylE reporter assay verified the activity of the top 110 hits from the primary screen, including '882. Triplicate cultures of S. aureus WT and ΔhssR transformed with the hrtAB promoter-xylE fusion-containing plasmid (phrt.xylE) were grown in the presence of the indicated additive and XylE activity was measured. (B) The structure of lead compound VU0038882 (′882). (C) '882 was confirmed as a hit in a tertiary screen that measured the ability of the compound to pre-adapt S. aureus for growth in 20 μM heme. Triplicate cultures of WT S. aureus were grown overnight in medium containing the indicated additive and sub-cultured into medium containing 20 μM heme. Growth was monitored by measuring the optical density at 600 nm (OD600) over time. (A and C) Error bars represent one standard deviation from the mean.
The present inventors designed and conducted a screening assay to identify activators of HssRS. With reference to FIG. 2A, a reporter plasmid containing the luxABCDE operon from Photorhabdus luminescens driven by the hrtAB promoter (phrt.lux) was used to screen 160,000 compounds from the VICB small molecule library with luminescence. With reference to FIG. 2B, 110 of the top hits from the primary screen were confirmed in a secondary screen using a xylE reporter gene driven by the hrtAB promoter (phrt.xylE). […] Activation of HssRS by a sub-toxic concentration of heme protects S. aureus from a subsequent toxic concentration of heme by upregulating HrtAB. The inhibition of growth due to heme toxicity is determined by measuring the optical density of bacterial cultures at 600 nm. In each screen the present inventors identified hits by comparing their activity to that of heme. […] Cultures of wildtype and ΔhssR carrying phrt.xylE were assayed for XylE activity upon '8882 treatment. The screening method designed by the present inventors as able to successfully identify small molecule activators of the S. aureus heme stress response.
Analogs of '882 were divided into two classes, and chemical modifications of both the Western-naphthol ring and the Eastern-furan ring were conducted. Each set was screened against the XylE assay with heme and '882 as standards for comparison. […] Examples of synthesized compounds and their activity classifications are shown above.

[4] = Liver tissue level by Imaging Mass Spectrometry and HPLC-MS; settings: HPLC-MS of excised liver, 24 h post-infection
S. aureus [5] = experiment: Fermentative activity: pH, D-glucose and lactate in culture supernatants; assay type: cell-based; settings: aerobic cultures
Protocol: FIGS. 12A-12C show examples of the present invention diminish fermentative activity. S. aureus was grown in triplicate under aerobic conditions in the presence of vehicle (black lines) or 40 μM '882 (gray lines). At the indicated time intervals, culture supernatants were sampled and the (A) pH, (B) D-glucose, and (C) D- and L-lactate were quantified. Error bars represent one standard deviation from the mean.
(§1) The effects of '8882 on fermentation was studied. With reference to FIG. 7A, S. aureus was grown in the presence of the indicated concentration of '8882 or cyanide. Growth was monitored over time by measuring the optical density at 600 nm and normalized to vehicle treated S. aureus. With reference to FIG. 7B, the concentration of glucose and lactate was measured in supernatants collected from S. aureus cultures containing vehicle or '8882. With reference to FIG. 7C, S. aureus grown in the presence or absence of '8882 was subjected to nitric oxide stress after 5 hours of growth. With reference to FIG. 7D, S. aureus was incubated with murine neutrophils in media containing either vehicle or '8882. Bacterial viability was determined by enumerating colony forming units on solid media.

IsdG = IsdG abundance by immunoblot as reporter of cytoplasmic heme; assay type: cell-based, S. aureus
Protocol: Wild type and ΔhemV S. aureus transformed with isdG driven under the constitutive Igt promoter (pIgt.isdG) were grown in the presence of increasing concentrations of '8882. Whole cell lysates, along with a protein standard, were blotted with anti IsdG polyclonal antisera and IsdG levels were quantified by densitometry.
Second, the intracellular abundance of the heme stabilized protein IsdG was used as a barometer of functional cytoplasmic heme levels (43), i.e., IsdG is a heme stabilized protein that can be used as a reporter for intracellular heme levels. With reference to FIG. 4A, S. aureus ΔisdG and ΔhemB were transformed with a plasmid that constitutively expresses IsdG (plgt.isdG). These strains were grown to stationary phase in the presence of the indicated concentration of '8882 or heme. Whole cell lysates were immunoblotted with anti-IsdG polyclonal antisera and bands were quantified using densitometry.
To determine if the endogenous heme produced as a result of '882 exposure is available for use in cellular processes, cytoplasmic heme availability was measured by quantifying intracellular levels of the cytoplasmic heme oxygenase IsdG. In the absence of exogenous heme, IsdG is rapidly degraded; however, heme binding stabilizes IsdG and reduces its proteolytic degradation. Therefore, the abundance of IsdG reflects the cytoplasmic levels of heme.

[6] = system: Staphylococcus haemolyticus; experiment: Adaptation to heme toxicity, growth curve; assay type: cell-based; settings: S. haemolyticus, subculture into 30 μM heme, versus non-adapted cultures
S. aureus [7] = experiment: Neutrophil killing of S. aureus; assay type: cell-based; settings: murine PMNs, 40 μM
[8] = system: Corynebacterium diphtheriae; experiment: Adaptation to heme toxicity, CFU enumeration; assay type: cell-based; settings: C. diphtheriae, subculture into 15 μM heme, versus non-adapted cultures
S. aureus Newman = experiment: Co-treatment with kanamycin, CFU enumeration after 24 h; assay type: cell-based; settings: TSB
Protocol: With reference to FIG. 8A, S. aureus Newman was cultured in TSB containing the indicated amount of kanamycin or '8882. After 24 h colony forming units (CFUs) were enumerated on solid medium. The dashed line indicates the limit of detection (LOD) and the asterisk denotes that two of the three replicates were below the LOD. Turning to FIG. 8B, 50 ul of each experimental groups was plated on TSA at a dilution of 1:100 except for the co-treatment group, which was plated undiluted. Two of the three co-treated replicates had no viable colonies.

neutrophils = assay type: cell-based, Murine
S. aureus [9] = assay type: cell-based; settings: 24 h; for Viable and gentamicin-resistant bacteria, single agent: treatment alone
Protocol: (A) S. aureus wildtype (WT, dashed lines), the menaquinone auxotroph (ΔmenB, dotted lines), and the heme auxotroph hemB::ermC (ΔhemB, solid lines) were grown in triplicate under aerobic (aer, black lines) and anaerobic (ana, gray lines) conditions in the presence of the indicated log of the concentration of '882 (μM). After 18 h the absorbance at 600 nm (OD600) was measured and normalized to vehicle (DMSO) treated bacteria. Curves were fit by nonlinear regression analysis and absolute log IC50 values were calculated in Prism with the top set at 1.0 and the bottom set at 0.15. […] Error bars represent the standard error of the mean. (B) Triplicate cultures of S. aureus were grown in the presence of the indicated additive. […] Shown is the average of three independent experiments. Error bars represent one standard deviation from the mean. (C) S. aureus was grown in the presence of vehicle (DMSO) or 40 μM '882 and coated in serum. Murine PMNs were elicited with casein and harvested from the peritoneum. The ability of neutrophils to kill S. aureus in the presence of '882 was assessed by comparing CFUs recovered from neutrophil-exposed S. aureus to those recovered from identical conditions lacking neutrophils. The mean of at least six independent experiments performed in triplicate are represented by the data; error bars represent standard error of the mean and significance was determined by a two-tailed Student's t-test.
S. aureus SCVs are obligate fermenters that emerge in response to aminoglycoside treatment. […] To test this, S. aureus was grown in the presence of vehicle, gentamicin, '882, or a combination of gentamicin and '882, and the evolution of gentamicin resistance was monitored.

S. aureus [10] = experiment: Nitric oxide stress of S. aureus; assay type: cell-based; settings: simultaneous exposure to NO.
Protocol: as §1

C. diphtheriae = experiment: Growth of C. diphtheriae; assay type: cell-based
[11] = Chemical stability, rule of five and solubility; settings: free base and trifluoroacetate salt
intracellular heme = experiment: Intracellular heme quantification; assay type: cell-based, S. aureus; settings: for Intracellular (endogenous) heme levels: pyridine hemochromogen assay / UPLC-MS
Protocol: (B) Heme levels in triplicate cultures of S. aureus treated with the indicated additive were quantified using the pyridine hemochromogen assay and normalized to the concentration of protein in the whole cell lysates. […] (A and B) Error bars represent one standard deviation from the mean. (C) Exact-mass mass spectrometric analysis was used in conjunction with UPLC to detect and quantify heme in protoplasts from cells treated with 40 μM '882 or vehicle grown in triplicate. Measured heme molecules were referenced to estimated CFUs per pellet, factoring in dilutions. Dead or lysed cells would also contribute to the measurement. […] Samples measured in duplicate or triplicate injections had typical errors of <5% between analytical replicates. Error bars represent the standard deviation and significance was calculated using a two-tailed Student's t-test.
Heme levels were quantified using the pyridine hemochromogen assay and normalized to the concentration of protein in the whole cell lysates.
To directly test if '882 exposure increases heme levels within staphylococci, intracellular heme abundance was measured using two distinct approaches. First, intracellular heme levels were quantified using a commercially available heme quantification kit (BioAssay systems).

Compound: Oc1ccccc1-c1cc(-c2ccccc2F)[nH]n1 ['373]
- Growth of ΔmenB (cannot respire, solely ferments) (S. aureus [1]): inhibits the growth of S. aureus ΔmenB, although to a lesser extent than '882
- Pre-adaptation of S. aureus for heme toxicity (S. aureus [2]): pre-adapt S. aureus for heme toxicity
- Decrease in CFUs recovered from the livers versus vehicle (S. aureus [3]): 1 log
- Number of liver abscesses (S. aureus [3]): significant reduction in the number of liver abscesses
- HssRS activation (XylE reporter activity) (HssRS): activates HssRS
- Liver tissue level versus dose [4]: linear relationship between tissue level and dose

Compound: Oc1c(-c2cc(-c3ccco3)[nH]n2)ccc2ccccc12 ['882]
- Bacteriostatic or bacteriocidal (CFU input versus output) (S. aureus [1]): bacteriostatic to fermentatively growing staphylococci
- Concentration that halts S. aureus growth (S. aureus [1]): less than 5 μM
- Growth of ΔhemB (SCV deficient in heme biosynthesis) (S. aureus [1]; S. aureus ΔhemB): sensitive to '882
- Growth of ΔmenB (cannot respire, solely ferments) (S. aureus [1]): more susceptible to '882 toxicity than wildtype; also recorded: bacteriostatic
- Growth of wildtype S. aureus grown anaerobically (S. aureus [1]; anaerobic): growth was dramatically reduced
- Growth of S. aureus in combination with potassium cyanide (KCN) (S. aureus [1]; combined with KCN, aerobic): growth is inhibited, even under aerobic conditions
- Pre-adaptation of S. aureus for heme toxicity (S. aureus [2]): pre-adapts S. aureus for heme toxicity
- Glycolytic / fermentative activity (acidification, D-glucose consumption, lactate production) (S. aureus [5]): reduced glycolytic activity
- Glycolytic / fermentative activity (acidification, D-glucose consumption, lactate production) (S. aureus [5]; listed as '8882): reduces the ability of S. aureus to ferment
- Intracellular abundance of IsdG (IsdG; S. aureus constitutively expressing IsdG): increases the abundance of IsdG in a concentration-dependent fashion
- Stabilization of IsdG in ΔhemB (IsdG; S. aureus ΔhemB): not stabilized
- Survival in heme after pre-treatment [6]: improved survival in heme
- Neutrophil-dependent killing of S. aureus (S. aureus [7]): improves neutrophil-dependent killing of S. aureus
- HssRS activation (XylE reporter activity) (HssRS): activates the hrtAB promoter in a dose-responsive manner
- HssRS activation (XylE reporter activity) (HssRS; listed as '8882): most potent activator of HssRS
- HssRS activation in heme auxotroph ΔhemB (HssRS): does not activate HssRS in ΔhemB
- Survival in heme after pre-treatment [8]: improved survival in heme
- Antibiotic efficacy on co-treatment with kanamycin (S. aureus Newman): improves antibiotic efficacy in vitro
- Neutrophil viability (neutrophils): does not overtly affect neutrophil viability
- Gentamicin-resistant colonies, combination with gentamicin (S. aureus [9]; combined with gentamicin): eliminated all detectable gentamicin-resistant colonies
- Reduction in bacterial viability, combination with gentamicin (S. aureus [9]; combined with gentamicin): 5 log
- Viable and gentamicin-resistant bacteria, single agent (S. aureus [9]): did not affect the number of viable or gentamicin-resistant bacteria
- Antibacterial effect of simultaneous exposure with nitric oxide (NO.) (S. aureus [10]): more antibacterial than treatment with either molecule alone
- Growth of C. diphtheriae (C. diphtheriae): inhibits the growth of C. diphtheriae
- Chemical stability [11]: good chemical stability
- Rule of five violations [11]: no rule of five violations
- Solubility ([11]; DMSO and aqueous solution): good solubility in DMSO and aqueous solution
- Increase of intracellular heme versus non-exposed bacteria (intracellular heme; commercial heme quantification kit (BioAssay systems)): approximately 10%
- Intracellular (endogenous) heme levels (intracellular heme): increase in a dose-responsive manner

Compound: O=CC[C@@H](O)[C@H](O)[C@H](O)CO [Compound 2dG, 2-deoxyglucose, reference compound]
- Intracellular (endogenous) heme levels (intracellular heme): reduces endogenous heme levels

Compound: C=CC1=C(C)c2cc3[n-]c(cc4[n-]c(cc5nc(cc1n2)C(C)=C5C=C)c(C)c4CCC(=O)O)c(CCC(=O)O)c3C.[Fe+2] [heme, reference compound]
- Survival in heme after pre-treatment [6]: improved survival in heme
- HssRS activation in heme auxotroph ΔhemB (HssRS): activates HssRS in ΔhemB
- Survival in heme after pre-treatment [8]: improved survival in heme

Compound: gentamicin [reference compound]
- Viable and gentamicin-resistant bacteria, single agent (S. aureus [9]): became resistant to gentamicin
